pEC50: −log10 of the molar value.
Experiments:
human mGluR5a receptor = human mGluR5a receptor (Homo sapiens, UniProt P41594); assay: Cell-based functional assay (Ca2+ mobilization, FDSS), potentiation of glutamate EC20 response; conditions: H10H cell line; for Emax: maximum % effect in the concentration-response curve as percent of maximal glutamate response, glutamate EC20; for pEC50: potentiation in presence of glutamate EC20, concentration in mol/L
Description: Human mGluR5a cDNA in pCMV6-XL6 mammalian expression plasmid was purchased from OriGene Technologies, Inc. (catalogue number SC326357) and subcloned into pcDNA3.1(−). Human embryonic kidney (HEK)293A cells were then transfected with human mGluR5a pcDNA3.1(−) using LipofectAmine-2000 (Invitrogen) and monoclones were selected and tested for functional response using a Ca^2+ mobilization assay. Monoclones were named for the species (“H” for human) plus the location on the plate (e.g. “10H”).
HEK cells transfected with the human mGluR5a receptor (H10H or H12H cell line) were plated at 15,000 cells/well in clear-bottomed poly-D-lysinecoated assay plates (BD Falcon) in glutamate-glutamine-free growth medium and incubated overnight at 37° C. and 5% CO2. Cell-lines used were either the H10H or H12H cell-lines expressing the human mGluR5 receptor. The following day, the growth medium was removed and the cells were washed with assay buffer containing 1× Hank's balanced salt solution (Invitrogen, Carlsbad, Calif.), 20 mM HEPES, 2.5 mM probenecid, pH 7.4 and left with 20 μL of this reagent. Following this step, the cells were loaded with calcium indicator dye, fluo-4 AM, to a final concentration of 2 μM and incubated for 40-45 min at 37° C. The dye solution was removed and replaced with assay buffer. Cell plates were held for 10-15 min at room temperature and were then loaded into the Functional Drug Screening System 6000 (FDSS 6000, Hamamatsu, Japan).
After establishment of a fluorescence baseline for about 3 seconds, the compounds of the present invention were added to the cells, and the response in cells was measured. 2.3 minutes later an EC20 concentration of the mGluR5 receptor agonist glutamate was added to the cells, and the response of the cells was measured for about 1.7 minutes. All test compounds were dissolved and diluted to a concentration of 10 mM in 100% DMSO and then serially diluted into assay buffer for a 2× stock solution in 0.6% DMSO; stock compounds were then added to the assay for a final DMSO concentration of 0.3% after the first addition to the assay well. Calcium fluorescence measures were recorded as fold over basal fluorescence; raw data was then normalized to the maximal response to glutamate. Potentiation of the agonist response of the mGluR5 receptor in the present invention was observed as an increase in response to submaximal concentrations of glutamate in the presence of compound compared to the response to glutamate in the absence of compound.
The concentration-response curves of compounds of the present invention, obtained in the presence of EC20 of mGluR5 receptor agonist glutamate to determine positive allosteric modulation, were generated using Microsoft Excel with IDBS XLFit add-ins. The raw data file containing all time points was used as the data source in the analysis template. This was saved by the FDSS as a tab-delimited text file. Data were normalized using a static ratio function (F/F0) for each measurement of the total 350 values per well divided by each well's initial value. Data was then reduced as to peak amplitudes (Max Initial Min) using a time range that starts approximately 1 second after the glutamate EC20 addition and continues for approximately 40 seconds. This is sufficient time to capture the peak amplitude of the cellular Calcium response. Individual amplitudes were expressed as % EMax by multiplying each amplitude by 100 and then dividing the product by the mean of the amplitudes derived from the glutamate ECMax-treated wells. pEC50 values for test compounds were generated by fitting the normalized values versus the log of the test compound concentration (in mol/L) using a 4 parameter logistic equation where none of the parameters were fixed. Each of the three values collected at each concentration of test compound were weighted evenly. Individual values falling outside the 95% prediction limits of the curve fit were automatically excluded from the fit. […]

Sequence of human mGluR5a receptor (P41594 21-1180 isoform P41594-2 limits assumed): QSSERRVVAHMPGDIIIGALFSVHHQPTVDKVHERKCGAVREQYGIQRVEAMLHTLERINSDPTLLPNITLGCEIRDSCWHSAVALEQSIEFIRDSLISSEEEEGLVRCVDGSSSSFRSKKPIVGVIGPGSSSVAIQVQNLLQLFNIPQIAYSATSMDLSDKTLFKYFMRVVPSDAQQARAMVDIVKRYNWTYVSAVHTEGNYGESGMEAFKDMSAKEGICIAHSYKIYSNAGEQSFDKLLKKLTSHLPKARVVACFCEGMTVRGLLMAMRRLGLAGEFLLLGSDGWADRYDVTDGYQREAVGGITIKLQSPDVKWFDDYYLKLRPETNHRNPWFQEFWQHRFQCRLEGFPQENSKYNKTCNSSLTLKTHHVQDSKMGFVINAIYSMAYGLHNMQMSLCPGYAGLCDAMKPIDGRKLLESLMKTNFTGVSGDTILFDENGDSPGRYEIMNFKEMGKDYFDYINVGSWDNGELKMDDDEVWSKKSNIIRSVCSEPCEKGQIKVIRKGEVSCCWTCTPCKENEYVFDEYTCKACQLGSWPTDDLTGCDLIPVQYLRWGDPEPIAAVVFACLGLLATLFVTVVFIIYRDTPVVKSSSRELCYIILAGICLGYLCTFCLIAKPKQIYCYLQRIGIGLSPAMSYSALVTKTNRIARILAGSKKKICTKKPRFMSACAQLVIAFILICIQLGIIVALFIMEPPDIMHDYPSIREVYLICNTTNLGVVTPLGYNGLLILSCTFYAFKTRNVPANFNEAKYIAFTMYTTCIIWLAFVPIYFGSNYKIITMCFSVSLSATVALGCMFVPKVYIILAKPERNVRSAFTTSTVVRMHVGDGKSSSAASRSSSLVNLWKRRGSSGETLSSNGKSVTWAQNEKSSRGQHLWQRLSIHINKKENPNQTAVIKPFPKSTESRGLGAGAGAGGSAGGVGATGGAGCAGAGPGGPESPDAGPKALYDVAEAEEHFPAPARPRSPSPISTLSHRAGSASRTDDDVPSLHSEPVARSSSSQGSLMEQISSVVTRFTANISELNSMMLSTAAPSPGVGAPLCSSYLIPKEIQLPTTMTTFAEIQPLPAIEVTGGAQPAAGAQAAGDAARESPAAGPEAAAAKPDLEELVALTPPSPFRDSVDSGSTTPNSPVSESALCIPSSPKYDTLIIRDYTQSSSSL

Row | Emax (human mGluR5a receptor) [%] | pEC50 (human mGluR5a receptor) | melting point [°C] | Structure (SMILES)
1 | 28 | < 4.52 | 164.6 | COc1ccc(COc2cc3n(n2)CCN(c2ccc(F)cc2)C3=O)cc1 [Example B30]
2 | 44 | 6.64 | 151.9 | O=C1c2cc(OCc3ccccc3)nn2CCN1c1ccccc1F [Example B6]
3 | 31 | 6.83 | 147.9 | N#Cc1cccc(COc2cc3n(n2)CCN(c2ccc(F)cc2)C3=O)c1 [Example B27]
4 | 62 | 6.19 | – | COc1cc(F)cc(CN2CCn3nc(OCc4ccccc4)cc3C2=O)c1 [Example B63]
5 | 61 | 6.99 | – | CC1CN(Cc2ccccc2)C(=O)c2cc(OCc3ccccc3)nn21 (single isomer, unassigned) [Example B62]
6 | 59 | 6.59 | – | C[C@@H]1Cn2nc(OCc3ccccc3)cc2C(=O)N1Cc1ccccc1 [Example B61]
7 | 23 | 5.88 | 68.1 to 68.4 | O=C1c2cc(OCc3ccccc3)nn2CCCN1CC1CC1 [Example B53, 2-(benzyloxy)-5-(cyclopropylmethyl)-5,6,7,8-tetrahydro-4H-pyrazolo[1,5-a][1,4]diazepin-4-one]
8 | 37 | < 5.00 | 167.2 | O=C1c2cc(OCc3ccccc3)nn2CCN1c1ccncc1 [Example B13]
9 | 57 | 6.42 | – | O=C1c2cc(OCc3ccccc3)nn2CCCN1Cc1ccccc1 [Example B58, 5-benzyl-2-(benzyloxy)-5,6,7,8-tetrahydro-4H-pyrazolo[1,5-a][1,4]diazepin-4-one]
10 | 44 | 6.94 | 131.5 | O=C1c2cc(OCc3ccccc3)nn2CCN1c1cccc(F)c1 [Example B5]
11 | 63 | 6.85 | 119 | O=C1c2cc(OCc3ccccc3F)nn2CCN1c1ccc(F)cc1 [Example B4, 2-[(2-fluorobenzyl)oxy]-5-(4-fluorophenyl)-6,7-dihydropyrazolo[1,5-a]pyrazin-4(5H)-one]
12 | 26 | < 4.52 | 172.9 | O=C1c2cc(OCc3ccncc3)nn2CCN1c1ccc(F)cc1 [Example B31]
13 | 58 | 6.75 | – | COc1ccc(F)cc1CN1CCn2nc(OCc3ccccc3)cc2C1=O [Example B68]
14 | 48 | 6.57 | 142.2 to 142.3 | Cc1cccc(N2CCCn3nc(OCc4ccccc4)cc3C2=O)n1 [Example B52]
15 | 20 | < 4.52 | – | O=C1c2cc(OCc3ccccc3)nn2CCCN1CC1CC1(F)F (centres unmarked) [Example B73]
16 | 55 | 6.60 | 223 | COc1nc(N2CCn3nc(OCc4ccccc4)cc3C2=O)ncc1F [Example B21]
17 | 53 | 6.76 | 152.1 | Cc1cccc(N2CCn3nc(OCc4ccccc4)cc3C2=O)n1 [Example B14]
18 | 25 | < 5.00 | 112.1 to 119.1 | O=C1c2cc(OCc3ccccc3)nn2CCCN1c1ccc(F)cn1 [Example B50, 2-(benzyloxy)-5-(5-fluoropyridin-2-yl)-5,6,7,8-tetrahydro-4H-pyrazolo[1,5-a][1,4]diazepin-4-one]
19 | 26 | ≤ 4.52 | – | O=C1c2cc(OCc3ccccc3)nn2CCN1CC1CC1 [Example B44, 2-(benzyloxy)-5-(cyclopropylmethyl)-6,7-dihydropyrazolo[1,5-a]pyrazin-4(5H)-one]
20 | 23 | < 4.52 | – | O=C1c2cc(OCc3ccccn3)nn2CCN1c1ccc(F)cc1 [Example B34]
21 | 63 | 6.44 | – | COc1cccc(CN2CCn3nc(OCc4ccccc4)cc3C2=O)c1F [Example B66]

Row | Emax (human mGluR5a receptor) [%] | pEC50 (human mGluR5a receptor) | melting point [°C] | Structure (SMILES)
22 | 59 | 6.95 | 146.2 | O=C1c2cc(OCc3ccccc3)nn2CCN1c1cccc(C2CC2)n1 [Example B3, 2-(benzyloxy)-5-(6-cyclopropylpyridin-2-yl)-6,7-dihydropyrazolo[1,5-a]pyrazin-4(5H)-one]
23 | 43 | 6.15 | 215.2 | Cc1cncc(N2CCn3nc(OCc4ccccc4)cc3C2=O)n1 [Example B22]
24 | 36 | 5.92 | 140.2 | COc1ccccc1COc1cc2n(n1)CCN(c1ccc(F)cc1)C2=O [Example B29]
25 | 17 | < 4.52 | 147.8 | O=C1c2cc(OCc3ccccc3)nn2CCN1c1cccnc1 [Example B12]
26 | 12 | < 4.52 | – | O=C1c2cc(OCc3cccnc3)nn2CCN1c1ccc(F)cc1 [Example B35]
27 | 45 | 6.47 | 145.2 | Cc1cc(N2CCn3nc(OCc4ccccc4)cc3C2=O)ncc1F [Example B18]
28 | 63 | 6.16 | 115.1 | COc1cc(CN2CCn3nc(OCc4ccccc4)cc3C2=O)ccc1F [Example B69]
29 | 57 | 6.18 | 160.6 | COc1nccc(N2CCn3nc(OCc4ccccc4)cc3C2=O)n1 [Example B2, 2-(benzyloxy)-5-(2-methoxypyrimidin-4-yl)-6,7-dihydropyrazolo[1,5-a]pyrazin-4(5H)-one]
30 | 36 | 7.06 | 103.8 | O=C1c2cc(OCc3ccccc3)nn2CCN1Cc1ccccc1 [Example B59]
31 | 54 | 6.74 | – | O=C1c2cc(OCc3ccccc3)nn2CCN1c1ccc(F)cc1 [Example B1, 2-(benzyloxy)-5-(4-fluorophenyl)-6,7-dihydropyrazolo[1,5-a]pyrazin-4(5H)-one]
32 | 47 | 6.26 | 140.2 to 140.7 | O=C1c2cc(OCc3ccccc3)nn2CCCN1c1ccc(F)cc1 [Example B49, 2-(benzyloxy)-5-(4-fluorophenyl)-5,6,7,8-tetrahydro-4H-pyrazolo[1,5-a][1,4]diazepin-4-one]
33 | 37 | – | – | CC1(CN2CCn3nc(OCc4ccccc4)cc3C2=O)COC1 [Example B55]
34 | 18 | < 4.52 | 105.1 | COc1cccc(COc2cc3n(n2)CCN(c2ccc(F)cc2)C3=O)c1 [Example B33]
35 | 53 | 6.44 | 114.6 to 116.1 | Cc1nc(N2CCCn3nc(OCc4ccccc4)cc3C2=O)ccc1F [Example B51]
36 | 63 | 6.94 | – | COc1cccc(CN2CCn3nc(OCc4ccccc4)cc3C2=O)c1Cl [Example B67]
37 | 18 | < 4.52 | 155.8 | O=C1c2cc(OCc3ccc(F)cc3)nn2CCN1c1ccc(F)cc1 [Example B32]
38 | 27 | < 4.52 | 158.5 | Cc1cccc(COc2cc3n(n2)CCN(c2ccc(F)cc2)C3=O)n1 [Example B36]
39 | 25 | < 5.00 | 153.5 | O=C1c2cc(OCc3ccccc3)nn2CCN1c1ccccn1 [Example B11]
40 | 45 | < 5.00 | 145.5 | O=C1c2cc(OCc3ccccc3)nn2CCN1c1ccc(F)cn1 [Example B16]
41 | 52 | 5.97 | – | O=C1c2cc(OCc3ccccc3)nn2CCN1CC1CCC1 [Example B56]
42 | 59 | 6.16 | – | O=C1c2cc(OCc3ccccc3)nn2CCN1CC1CC(F)(F)C1 [Example B71]

— patent US8901125B2, “Substituted bicyclic alkoxy pyrazole analogs as allosteric modulators of mGluR5 receptors” (Vanderbilt University, priority 2012, dated 2014)
